A word on the IC50: it is the concentration that inhibits the measured activity by half. The low end stands for higher potency, the high end for lower potency.

In assay [1] the target is human constitutive proteasome β5c (Homo sapiens, UniProt P28074). As to the kind of experiment: IC50 against chymotryptic activity of human constitutive proteasome (Hu c-20S, suc-LLVY-AMC substrate). Format: biochemical. The note with it: 0.2 nM Hu c-20S, 25 μM suc-LLVY-AMC, 0.02% SDS, pH 7.4, 37° C. The method, then: (§1) Measurement of IC50s of Dipeptidomimetics Against Chymotryptic Activities of the Human Constitutive Proteasome and Immunoproteasome
(§2) Assays were conducted on a SpectraMax Gemini plate-reader from Molecular Devices (Sunnyvale, CA). In a black 96-well plate, 100 μL of pre-warmed assay mixture containing 0.4 nM Hu i-20S or 0.2 nM Hu c-20S, 15 μM N-acetyl-Alanine-Asparagine-Tryptophan-7-amino-4-methylcoumarin (Ac-ANW-AMC) (substrate for i-20S) or 25 μM N-succinyl-Leucine-Leucine-Valine-Tyrosine-7-amino-4-methylcoumarin (suc-LLVY-AMC) (substrate for c-20S), 0.02% SDS in buffer (50 mM HEPES, 0.5 mM EDTA, pH 7.4) was added to the wells that contained 1 μL inhibitor at 100× indicated concentrations in DMSO. The reaction progress of each well was recorded by monitoring fluorescence at 460 nm (λex=360 nm) for 120 minutes at 37° C. Velocities were derived from the initial linear range of the curves and the IC50s were obtained by plotting the percentage of inhibitor versus inhibitor concentrations (FIG. 1). […]

Assay [2] has as its target human immunoproteasome β5i (Homo sapiens, UniProt P28062). As to the kind of experiment: IC50 against chymotryptic activity of human immunoproteasome (Hu i-20S, Ac-ANW-AMC substrate). Format: biochemical. The settings on record: 0.4 nM Hu i-20S, 15 μM Ac-ANW-AMC, 0.02% SDS, pH 7.4, 37° C. As to the method: as §1, §2

Consider `C[C@@H](CC(=O)NCc1cccc2ccccc12)NC(=O)[C@H](CC(=O)NC(C)(C)C)NC(=O)OC(C)(C)C` [PK52272, tert-butyl ((S)-4-(tert-butylamino)-1-(((S)-4-((naphthalen-1-ylmethyl)amino)-4-oxobutan-2-yl)amino)-1,4-dioxobutan-2-yl)carbamate], for which the IC50 in assay [1] is over 100 µM; in assay [2], 0.152 µM.
In the case of `Cc1ccc(S(=O)(=O)N[C@H](CC(=O)N[C@@H](C)C(=O)NCc2cccc3ccccc23)CC(=O)NC(C)(C)C)cc1` [PK52279, (R)—N^1-(tert-butyl)-3-(4-methylphenylsulfonamido)-N^5—((S)-1-((naphthalen-1-ylmethyl)amino)-1-oxopropan-2-yl)pentanediamide], the figures for the IC50 in assay [1] and in assay [2] were 34.7 µM and 0.0145 µM, respectively.
As to `Cc1ccc(S(=O)(=O)N[C@@H](CCC(=O)NC(C)(C)C)CC(=O)N[C@@H](C)C(=O)NCc2cccc3ccccc23)cc1` [PK52290, (S)—N^6-(tert-butyl)-3-(4-methylphenylsulfonamido)-N^1—((S)-1-((naphthalen-1-ylmethyl)amino)-1-oxopropan-2-yl)hexanediamide], the values for the half-maximal inhibitory concentration (IC50) in assay [1] and in assay [2] were 13.9 µM and 1.6 µM, respectively.
With `Cc1ccc(S(=O)(=O)N[C@H](CC(=O)N[C@@H](C)CC(=O)NCc2cccc3ccccc23)CC(=O)NC(C)(C)C)cc1` [PK52291, (R)—N^1-(tert-butyl)-3-(4-methylphenylsulfonamido)-N^5—((S)-4-((naphthalen-1-ylmethyl)amino)-4-oxobutan-2-yl)pentanediamide], the results for the IC50 in assay [1] and in assay [2] were over 100 µM and 8.68 µM, respectively.
`C[C@@H](CC(=O)NCc1cccc2ccccc12)NC(=O)[C@H](CC(=O)NC(C)(C)C)NS(=O)(=O)C1CC1` [PK52295, (S)—N^4-(tert-butyl)-2-(cyclopropanesulfonamido)-N^1—((S)-4-((naphthalen-1-ylmethyl)amino)-4-oxobutan-2-yl)succinamide] had a half-maximal inhibitory concentration (IC50) in assay [2] of 0.141 µM.
On to `Cc1ccc(S(=O)(=O)N[C@@H](CCC(=O)NC(C)(C)C)C(=O)N[C@@H](C)C(=S)NCc2cccc3ccccc23)cc1` [PK53021], for which the 50% inhibitory concentration (IC50) in assay [1] was found to be 13.4 µM; in assay [2] it was 0.671 µM.
The like results for `Cc1cc(C(=O)N[C@@H](CC(=O)NC(C)(C)C)C(=O)N[C@@H](C)CC(=O)NCc2cccc3ccccc23)no1` [PKS2249, (S)—N^4-(tert-butyl)-2-(5-methylisoxazole-3-carboxamido)-N^1—((S)-4-((naphthalen-1-ylmethyl)amino)-4-oxobutan-2-yl)succinamide] were, in that order, 16.1 µM and 0.18 µM.
The like results for `C[C@@H](CC(=O)NCc1cccc2ccccc12)NC(=O)[C@H](CC(=O)NC(C)(C)C)NC(=O)CCc1ccccc1` [PKS2251, (S)—N^4-(tert-butyl)-N^1—((S)-4-((naphthalen-1-ylmethyl)amino)-4-oxobutan-2-yl)-2-(3-phenylpropanamido)succinamide] were, in that order, 32.2 µM and 0.045 µM.
On to `Cc1ccc(S(=O)(=O)N[C@@H](CC(=O)NC(C)(C)C)C(=O)N[C@@H](C)CC(=O)NCc2cccc3ccccc23)cc1` [PKS2252, (S)—N^4-(tert-butyl)-2-((4-methylphenyl)sulfonamido)-N^1—((S)-4-((naphthalen-1-ylmethyl)amino)-4-oxobutan-2-yl)succinamide], for which the IC50 in assay [1] came out at 8.81 µM; in assay [2], 0.0064 µM.
As to `C[C@@H](CC(=O)NCc1cccc2ccccc12)NC(=O)[C@H](CCC(=O)NC(C)(C)C)NC(=O)CCc1ccccc1` [PKS2253, (S)—N^5-(tert-butyl)-N^1—((S)-4-((naphthalen-1-ylmethyl)amino)-4-oxobutan-2-yl)-2-(3-phenylpropanamido)pentanediamide], the IC50 amounted to 17.8 µM in assay [1] and 0.31 µM in assay [2].
On to `C[C@@H](CC(=O)NCc1cccc2ccccc12)NC(=O)[C@H](CC(=O)NC(C)(C)C)NS(=O)(=O)c1ccccc1` [PKS2260, (S)—N^4-(tert-butyl)-N^1—((S)-4-((naphthalen-1-ylmethyl)amino)-4-oxobutan-2-yl)-2-(phenylsulfonamido)succinamide], for which the IC50 in assay [1] came out at 16.6 µM; in assay [2] it was 0.0112 µM.
With `C[C@H](NC(=O)C[C@H](CC(=O)NC(C)(C)C)NC(=O)CCc1ccccc1)C(=O)NCc1cccc2ccccc12` [PKS2278, (R)—N^1-(tert-butyl)-N^5—((S)-1-((naphthalen-1-ylmethyl)amino)-1-oxopropan-2-yl)-3-(3-phenylpropanamido)pentanediamide], the IC50 was over 100 µM in assay [1] and 2.26 µM in assay [2].
In the case of `C[C@@H](CC(=O)NCc1cccc2ccccc12)NC(=O)C[C@H](CC(=O)NC(C)(C)C)NC(=O)CCc1ccccc1` [PKS2292, (R)—N^1-(tert-butyl)-N^5—((S)-4-((naphthalen-1-ylmethyl)amino)-4-oxobutan-2-yl)-3-(3-phenylpropanamido)pentanediamide], the IC50 in assay [1] and in assay [2] was over 100 µM throughout.
Take `C[C@H](NC(=O)[C@H](CCC(=O)NC(C)(C)C)NC(=O)CCc1ccccc1)C(=S)NCc1cccc2ccccc12` [PKS3020]: the values for the IC50 in assay [1] and in assay [2] were 7 µM and 0.799 µM, respectively.
In the case of `C[C@@H](CC(=O)NCc1cccc2ccccc12)NC(=O)[C@H](CC(=O)NC(C)(C)C)NC(=O)C(=O)c1c[nH]c2ccccc12` [PKS3054], the figures for the IC50 in assay [1] and in assay [2] were 0.234 µM and 0.0048 µM, respectively.
On to `C[C@H](NC(=O)C[C@H](CC(=O)NC(C)(C)C)NC(=O)OC(C)(C)C)C(=O)Nc1ccccc1` [PKS3065], for which the IC50 in assay [1] and in assay [2] was over 100 µM throughout.
As for `C[C@@H](CC(=O)Nc1cccc2ccccc12)NC(=O)[C@H](CC(=O)NC(C)(C)C)NC(=O)CCc1ccccc1` [PKS3081], the concentration for half-maximal inhibition (IC50) in assay [1] was over 100 µM; in assay [2], 13.7 µM.
As to `CC(C)(C)NC(=O)C[C@H](NC(=O)CCc1ccccc1)C(=O)NCCC(=O)NCc1cccc2ccccc12` [PKS21220], the results for the IC50 in assay [1] and in assay [2] were 51.4 µM and 0.655 µM, respectively.

The values are drawn from US12016896B2, “Dipeptidomimetics as inhibitors of human immunoproteasomes” (CORNELL UNIVERSITY, priority 2014, dated 2024).
